This passage reports IC50 results from ChEMBL document CHEMBL1201862, “PubChem BioAssay data set” (2004).

The IC50 is the concentration at which inhibition is half-maximal.

The assay concerns the target Envelope glycoprotein gp160 (Human immunodeficiency virus 1, UniProt Q6QLK5). The assay can be described thus: inhibitors of HIV fusion peptide binding, primary screen, biochemical, uHTS, fluorescence dequenching (AID 1986).

Active and inactive are the calls of the source. Cut-off read from the data, not from the text of the source: actives have a measured IC50 and inactives only a lower limit.

Envelope glycoprotein gp160, sequence (Q6QLK5 whole entry, the tested form may be a part): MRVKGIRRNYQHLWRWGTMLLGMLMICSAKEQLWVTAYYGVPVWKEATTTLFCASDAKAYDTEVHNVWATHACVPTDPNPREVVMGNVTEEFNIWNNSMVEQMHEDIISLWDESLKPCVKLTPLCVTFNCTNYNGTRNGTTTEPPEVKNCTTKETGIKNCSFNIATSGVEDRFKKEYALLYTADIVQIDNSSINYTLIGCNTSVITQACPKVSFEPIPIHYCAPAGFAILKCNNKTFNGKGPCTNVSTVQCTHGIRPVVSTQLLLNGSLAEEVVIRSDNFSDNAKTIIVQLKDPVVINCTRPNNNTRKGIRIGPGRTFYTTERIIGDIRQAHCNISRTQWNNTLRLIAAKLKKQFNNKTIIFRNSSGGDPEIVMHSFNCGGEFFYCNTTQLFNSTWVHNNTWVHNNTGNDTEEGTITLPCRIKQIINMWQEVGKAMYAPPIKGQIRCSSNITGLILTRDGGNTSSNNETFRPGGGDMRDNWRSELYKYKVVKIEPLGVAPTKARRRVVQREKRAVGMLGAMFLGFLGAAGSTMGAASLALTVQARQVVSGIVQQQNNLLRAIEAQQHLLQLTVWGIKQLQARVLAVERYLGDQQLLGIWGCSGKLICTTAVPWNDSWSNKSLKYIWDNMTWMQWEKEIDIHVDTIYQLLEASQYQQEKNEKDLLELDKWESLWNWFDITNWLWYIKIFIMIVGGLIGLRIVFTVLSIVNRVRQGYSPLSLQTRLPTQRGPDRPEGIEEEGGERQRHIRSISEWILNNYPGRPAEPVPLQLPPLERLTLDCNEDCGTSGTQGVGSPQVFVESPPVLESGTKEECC

`O=C(Nc1ccc(C(=O)O)cc1)/C(=C\C=C\c1ccccc1)NC(=O)c1cccc(Br)c1`: the IC50 is 22.6 µM (active).
